Measured values from patent US20100137449A1, “SUBSTITUTED 1,3-CYCLOPENTADIONE MULTI-TARGET PROTEIN KINASE MODULATORS OF CANCER, ANGIOGENESIS AND THE INFLAMMATORY PATHWAYS ASSOCIATED THEREWITH” (METAPROTEOMICS, LLC, priority 2007, published 2010).

How the values were obtained:
Test in all cases: KinaseProfiler Assay
[1] = target: PTK5(h) (Homo sapiens, UniProt P42685)
[2] = target: CHK2(h) (Homo sapiens, UniProt O96017)
[3] = target: SRPK2(h) (Homo sapiens, UniProt P78362)
[4] = target: Fyn(h) (Homo sapiens, UniProt P06241)
Fyn(h), sequence (P06241 whole entry): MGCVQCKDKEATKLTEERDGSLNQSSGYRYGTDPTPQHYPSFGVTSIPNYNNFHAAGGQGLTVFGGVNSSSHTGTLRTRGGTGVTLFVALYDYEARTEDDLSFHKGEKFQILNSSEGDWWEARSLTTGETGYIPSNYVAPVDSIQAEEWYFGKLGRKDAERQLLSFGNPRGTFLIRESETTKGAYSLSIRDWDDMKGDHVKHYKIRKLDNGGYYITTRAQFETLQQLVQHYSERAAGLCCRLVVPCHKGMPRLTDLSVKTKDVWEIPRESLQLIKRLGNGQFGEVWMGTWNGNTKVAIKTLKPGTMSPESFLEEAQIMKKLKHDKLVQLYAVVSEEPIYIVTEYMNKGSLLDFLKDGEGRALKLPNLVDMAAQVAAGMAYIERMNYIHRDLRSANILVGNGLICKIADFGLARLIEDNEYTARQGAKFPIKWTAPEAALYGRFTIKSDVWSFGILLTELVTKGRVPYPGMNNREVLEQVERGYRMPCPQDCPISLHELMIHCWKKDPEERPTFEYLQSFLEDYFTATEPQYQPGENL

[5] = target: Abl(m) (Mus musculus, UniProt P00520)
Abl(m), sequence (P00520 whole entry): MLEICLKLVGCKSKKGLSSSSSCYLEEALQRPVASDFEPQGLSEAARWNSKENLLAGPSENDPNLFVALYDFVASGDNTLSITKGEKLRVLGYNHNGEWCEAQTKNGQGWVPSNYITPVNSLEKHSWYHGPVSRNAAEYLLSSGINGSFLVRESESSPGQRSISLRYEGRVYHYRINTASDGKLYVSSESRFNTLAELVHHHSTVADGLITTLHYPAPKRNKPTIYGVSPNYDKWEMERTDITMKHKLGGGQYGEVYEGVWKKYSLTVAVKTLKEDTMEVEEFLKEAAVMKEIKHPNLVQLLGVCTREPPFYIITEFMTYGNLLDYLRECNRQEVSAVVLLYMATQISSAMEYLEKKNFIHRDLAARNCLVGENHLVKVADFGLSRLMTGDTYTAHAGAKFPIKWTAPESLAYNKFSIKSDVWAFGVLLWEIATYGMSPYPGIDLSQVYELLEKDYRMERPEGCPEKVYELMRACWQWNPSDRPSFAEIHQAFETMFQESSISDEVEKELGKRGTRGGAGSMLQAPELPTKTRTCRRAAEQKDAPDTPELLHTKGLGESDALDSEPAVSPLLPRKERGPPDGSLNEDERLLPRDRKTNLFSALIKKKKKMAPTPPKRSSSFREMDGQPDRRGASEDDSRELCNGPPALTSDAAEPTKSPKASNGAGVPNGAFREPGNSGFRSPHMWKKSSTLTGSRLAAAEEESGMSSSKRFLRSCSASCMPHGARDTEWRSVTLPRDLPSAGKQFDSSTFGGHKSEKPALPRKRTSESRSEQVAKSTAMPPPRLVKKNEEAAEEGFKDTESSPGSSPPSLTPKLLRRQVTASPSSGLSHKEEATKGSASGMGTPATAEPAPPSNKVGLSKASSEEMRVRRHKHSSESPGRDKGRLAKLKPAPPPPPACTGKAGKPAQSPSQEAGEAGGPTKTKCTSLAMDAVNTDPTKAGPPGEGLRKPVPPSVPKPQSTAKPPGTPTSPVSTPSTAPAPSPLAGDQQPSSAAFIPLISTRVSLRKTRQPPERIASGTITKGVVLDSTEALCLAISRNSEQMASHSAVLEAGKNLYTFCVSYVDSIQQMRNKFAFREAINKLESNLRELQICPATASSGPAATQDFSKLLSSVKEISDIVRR

[6] = target: T1, Haspin(h) (Homo sapiens, UniProt Q8TF76)
T1 sequence (Q8TF76 1-798): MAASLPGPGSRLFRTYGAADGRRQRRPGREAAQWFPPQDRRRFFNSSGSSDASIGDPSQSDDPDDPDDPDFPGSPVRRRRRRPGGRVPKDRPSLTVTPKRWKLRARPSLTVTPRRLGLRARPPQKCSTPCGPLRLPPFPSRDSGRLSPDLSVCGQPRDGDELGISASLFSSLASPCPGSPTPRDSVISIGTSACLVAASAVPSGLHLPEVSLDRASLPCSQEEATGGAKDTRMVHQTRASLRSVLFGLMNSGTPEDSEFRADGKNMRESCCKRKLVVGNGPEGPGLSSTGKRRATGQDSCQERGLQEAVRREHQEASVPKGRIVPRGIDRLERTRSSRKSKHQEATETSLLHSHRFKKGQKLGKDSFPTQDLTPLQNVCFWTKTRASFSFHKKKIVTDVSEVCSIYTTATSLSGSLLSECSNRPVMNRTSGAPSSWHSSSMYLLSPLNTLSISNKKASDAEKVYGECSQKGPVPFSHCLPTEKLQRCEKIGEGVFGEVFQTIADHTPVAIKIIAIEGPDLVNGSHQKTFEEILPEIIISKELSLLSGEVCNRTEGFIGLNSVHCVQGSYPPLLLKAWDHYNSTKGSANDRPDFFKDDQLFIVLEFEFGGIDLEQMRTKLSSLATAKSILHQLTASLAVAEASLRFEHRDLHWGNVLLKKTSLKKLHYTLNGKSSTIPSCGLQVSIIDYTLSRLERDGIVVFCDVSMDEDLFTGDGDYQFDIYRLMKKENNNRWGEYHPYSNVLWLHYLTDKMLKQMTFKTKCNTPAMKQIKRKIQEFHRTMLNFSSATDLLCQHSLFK

[7] = target: FGFR1(V561M)(h) (Homo sapiens, UniProt P11362, V561M)
FGFR1(V561M)(h), sequence (P11362 22-822 V561M): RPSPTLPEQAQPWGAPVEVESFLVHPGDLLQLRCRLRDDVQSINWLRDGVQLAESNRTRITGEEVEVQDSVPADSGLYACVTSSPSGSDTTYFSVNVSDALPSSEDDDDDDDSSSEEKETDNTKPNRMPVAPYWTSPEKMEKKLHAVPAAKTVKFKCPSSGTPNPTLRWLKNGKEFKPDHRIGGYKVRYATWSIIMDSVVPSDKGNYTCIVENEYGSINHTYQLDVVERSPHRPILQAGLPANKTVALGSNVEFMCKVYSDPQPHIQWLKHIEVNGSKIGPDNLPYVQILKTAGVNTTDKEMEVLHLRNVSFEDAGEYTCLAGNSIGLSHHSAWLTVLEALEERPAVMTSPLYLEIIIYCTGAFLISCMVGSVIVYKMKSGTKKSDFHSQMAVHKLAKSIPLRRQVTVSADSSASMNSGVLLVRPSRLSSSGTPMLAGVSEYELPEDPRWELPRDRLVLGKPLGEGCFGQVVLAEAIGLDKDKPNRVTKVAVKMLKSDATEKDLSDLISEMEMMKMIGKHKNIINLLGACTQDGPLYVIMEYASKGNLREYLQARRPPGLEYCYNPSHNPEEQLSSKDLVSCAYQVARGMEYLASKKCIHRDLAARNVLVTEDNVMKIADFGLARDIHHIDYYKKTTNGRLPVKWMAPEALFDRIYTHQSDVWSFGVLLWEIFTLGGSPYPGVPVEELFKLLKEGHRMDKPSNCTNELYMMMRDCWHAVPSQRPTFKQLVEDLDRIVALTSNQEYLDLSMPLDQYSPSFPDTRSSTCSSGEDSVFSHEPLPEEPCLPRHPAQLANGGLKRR

[8] = target: T2, IKKα(h) (Homo sapiens, UniProt O15111)
T2 sequence (O15111 1-745): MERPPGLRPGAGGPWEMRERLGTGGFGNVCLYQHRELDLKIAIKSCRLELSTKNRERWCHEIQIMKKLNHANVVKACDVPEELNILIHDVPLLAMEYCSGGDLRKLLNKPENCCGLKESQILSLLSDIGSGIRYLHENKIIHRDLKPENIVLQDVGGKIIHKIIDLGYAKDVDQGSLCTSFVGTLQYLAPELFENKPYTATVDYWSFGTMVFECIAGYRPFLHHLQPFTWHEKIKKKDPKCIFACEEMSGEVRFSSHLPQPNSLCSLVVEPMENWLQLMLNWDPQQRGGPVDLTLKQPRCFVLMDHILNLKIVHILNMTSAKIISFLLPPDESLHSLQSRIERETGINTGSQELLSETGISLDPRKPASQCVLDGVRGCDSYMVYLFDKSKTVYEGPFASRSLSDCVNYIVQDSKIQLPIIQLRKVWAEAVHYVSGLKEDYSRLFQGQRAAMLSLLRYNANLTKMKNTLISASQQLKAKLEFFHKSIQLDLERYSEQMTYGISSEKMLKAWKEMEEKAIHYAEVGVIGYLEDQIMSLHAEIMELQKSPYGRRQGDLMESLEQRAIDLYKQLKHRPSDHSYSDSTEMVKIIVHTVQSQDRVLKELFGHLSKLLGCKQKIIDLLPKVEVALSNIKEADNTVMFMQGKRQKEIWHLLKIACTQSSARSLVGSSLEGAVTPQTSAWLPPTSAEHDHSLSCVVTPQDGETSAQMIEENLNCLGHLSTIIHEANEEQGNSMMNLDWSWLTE

[9] = target: NEK6(h) (Homo sapiens, UniProt Q9HC98)
[10] = target: Fer(h) (Homo sapiens, UniProt P16591)
Fer(h), sequence (P16591 whole entry): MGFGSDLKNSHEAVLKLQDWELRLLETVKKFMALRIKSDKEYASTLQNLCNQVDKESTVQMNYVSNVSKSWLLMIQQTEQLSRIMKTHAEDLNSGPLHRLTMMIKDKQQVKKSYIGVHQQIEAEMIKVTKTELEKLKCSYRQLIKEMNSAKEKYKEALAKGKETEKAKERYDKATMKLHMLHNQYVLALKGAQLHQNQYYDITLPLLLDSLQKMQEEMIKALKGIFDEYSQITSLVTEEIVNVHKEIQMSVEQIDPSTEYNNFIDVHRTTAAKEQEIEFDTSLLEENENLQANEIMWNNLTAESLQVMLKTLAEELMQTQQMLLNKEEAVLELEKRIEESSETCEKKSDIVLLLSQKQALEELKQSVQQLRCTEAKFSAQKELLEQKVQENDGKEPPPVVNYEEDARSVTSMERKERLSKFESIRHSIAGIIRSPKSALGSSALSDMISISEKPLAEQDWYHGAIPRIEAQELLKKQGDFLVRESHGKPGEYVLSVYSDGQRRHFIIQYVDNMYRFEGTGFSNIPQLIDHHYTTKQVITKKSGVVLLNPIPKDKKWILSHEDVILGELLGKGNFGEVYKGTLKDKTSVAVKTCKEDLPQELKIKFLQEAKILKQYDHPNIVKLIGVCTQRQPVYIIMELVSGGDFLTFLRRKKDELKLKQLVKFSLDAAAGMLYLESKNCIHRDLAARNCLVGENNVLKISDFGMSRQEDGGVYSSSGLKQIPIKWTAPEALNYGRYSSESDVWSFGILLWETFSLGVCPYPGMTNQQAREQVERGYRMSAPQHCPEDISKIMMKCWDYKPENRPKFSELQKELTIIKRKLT

[11] = target: Ret(V804M)(h) (Homo sapiens, UniProt P07949, V804M)
Ret(V804M)(h), sequence (P07949 29-1114 V804M): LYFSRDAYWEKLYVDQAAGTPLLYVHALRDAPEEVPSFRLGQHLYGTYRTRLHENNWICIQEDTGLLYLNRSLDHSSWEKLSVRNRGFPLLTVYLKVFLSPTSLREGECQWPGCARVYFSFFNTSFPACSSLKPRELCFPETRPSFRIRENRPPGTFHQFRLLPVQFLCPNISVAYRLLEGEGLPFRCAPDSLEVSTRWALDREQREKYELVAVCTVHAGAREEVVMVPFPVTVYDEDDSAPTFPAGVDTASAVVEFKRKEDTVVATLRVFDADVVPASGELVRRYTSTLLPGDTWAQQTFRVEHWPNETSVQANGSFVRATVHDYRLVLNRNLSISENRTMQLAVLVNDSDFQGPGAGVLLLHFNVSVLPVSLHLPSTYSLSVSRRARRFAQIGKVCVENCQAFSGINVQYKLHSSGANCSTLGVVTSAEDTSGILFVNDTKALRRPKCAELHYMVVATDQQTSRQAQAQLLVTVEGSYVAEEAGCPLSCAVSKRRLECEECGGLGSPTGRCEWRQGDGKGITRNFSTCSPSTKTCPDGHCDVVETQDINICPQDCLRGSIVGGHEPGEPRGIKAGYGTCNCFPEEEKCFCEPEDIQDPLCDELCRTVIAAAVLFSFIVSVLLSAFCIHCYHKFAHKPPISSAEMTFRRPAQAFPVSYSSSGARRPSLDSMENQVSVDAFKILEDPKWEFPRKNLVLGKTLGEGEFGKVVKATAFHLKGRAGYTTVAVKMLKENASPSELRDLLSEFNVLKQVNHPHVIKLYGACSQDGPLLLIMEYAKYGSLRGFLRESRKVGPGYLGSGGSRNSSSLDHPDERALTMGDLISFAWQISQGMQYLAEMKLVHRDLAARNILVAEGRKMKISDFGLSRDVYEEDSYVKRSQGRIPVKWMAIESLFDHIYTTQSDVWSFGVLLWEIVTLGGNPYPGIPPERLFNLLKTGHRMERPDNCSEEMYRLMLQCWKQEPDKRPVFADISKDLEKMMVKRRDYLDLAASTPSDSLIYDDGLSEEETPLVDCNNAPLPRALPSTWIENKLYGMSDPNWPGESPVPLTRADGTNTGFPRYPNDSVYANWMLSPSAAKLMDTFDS

SRPK2(h), sequence (P78362 whole entry): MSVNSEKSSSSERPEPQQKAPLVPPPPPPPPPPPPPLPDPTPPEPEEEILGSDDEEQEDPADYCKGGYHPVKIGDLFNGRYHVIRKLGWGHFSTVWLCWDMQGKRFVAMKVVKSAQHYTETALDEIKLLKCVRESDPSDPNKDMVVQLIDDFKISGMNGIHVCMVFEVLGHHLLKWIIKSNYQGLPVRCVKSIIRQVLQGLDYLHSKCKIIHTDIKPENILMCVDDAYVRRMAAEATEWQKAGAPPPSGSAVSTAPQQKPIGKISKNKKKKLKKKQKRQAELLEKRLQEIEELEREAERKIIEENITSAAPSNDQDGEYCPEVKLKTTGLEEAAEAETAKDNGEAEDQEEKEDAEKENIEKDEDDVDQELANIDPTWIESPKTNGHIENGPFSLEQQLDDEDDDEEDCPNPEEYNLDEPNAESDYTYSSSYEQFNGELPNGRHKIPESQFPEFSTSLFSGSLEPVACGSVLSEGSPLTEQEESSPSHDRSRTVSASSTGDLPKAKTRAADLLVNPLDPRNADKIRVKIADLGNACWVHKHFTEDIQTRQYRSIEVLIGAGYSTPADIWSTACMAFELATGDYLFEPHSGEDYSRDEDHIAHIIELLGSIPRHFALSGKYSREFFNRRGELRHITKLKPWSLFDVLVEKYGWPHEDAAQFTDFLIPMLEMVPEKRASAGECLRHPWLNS

CC(C)CCC(=O)[C@]1(O)C(O)=C(C(=O)C(C)C)C(=O)[C@H]1CCC(C)C [TH2, tetrahydroiso-cohumulone]
kinase inhibition ([1]; 1 μg/ml): 116% of control
kinase inhibition ([1]; 5 μg/ml): 105% of control
kinase inhibition ([1]; 25 μg/ml): 113% of control
kinase inhibition ([1]; 50 μg/ml): 112% of control
kinase inhibition ([1]; 100 μg/ml): 116% of control
kinase inhibition ([2]; 1 μg/ml): 107% of control
kinase inhibition ([2]; 5 μg/ml): 107% of control
kinase inhibition ([2]; 25 μg/ml): 105% of control
kinase inhibition ([2]; 50 μg/ml): 108% of control
kinase inhibition ([2]; 100 μg/ml): 97% of control
kinase inhibition ([3]; 1 μg/ml): 105% of control
kinase inhibition ([3]; 5 μg/ml): 104% of control
kinase inhibition ([3]; 25 μg/ml): 99% of control
kinase inhibition ([3]; 50 μg/ml): 91% of control
kinase inhibition ([3]; 100 μg/ml): 88% of control
kinase inhibition ([4]; 1 μg/ml): 103% of control
kinase inhibition ([4]; 5 μg/ml): 105% of control
kinase inhibition ([4]; 25 μg/ml): 103% of control
kinase inhibition ([4]; 50 μg/ml): 105% of control
kinase inhibition ([4]; 100 μg/ml): 89% of control
kinase inhibition ([5]; 1 μg/ml): 98% of control
kinase inhibition ([5]; 5 μg/ml): 91% of control
kinase inhibition ([5]; 25 μg/ml): 69% of control
kinase inhibition ([5]; 50 μg/ml): 32% of control
kinase inhibition ([5]; 100 μg/ml): 48% of control
kinase inhibition ([6]; 1 μg/ml): 105% of control
kinase inhibition ([6]; 5 μg/ml): 95% of control
kinase inhibition ([6]; 25 μg/ml): 90% of control
kinase inhibition ([6]; 50 μg/ml): 76% of control
kinase inhibition ([6]; 100 μg/ml): 49% of control
kinase inhibition ([7]; 1 μg/ml): 105% of control
kinase inhibition ([7]; 5 μg/ml): 107% of control
kinase inhibition ([7]; 25 μg/ml): 95% of control
kinase inhibition ([7]; 50 μg/ml): 79% of control
kinase inhibition ([7]; 100 μg/ml): 75% of control
kinase inhibition ([8]; 1 μg/ml): 99% of control
kinase inhibition ([8]; 5 μg/ml): 108% of control
kinase inhibition ([8]; 25 μg/ml): 114% of control
kinase inhibition ([8]; 50 μg/ml): 114% of control
kinase inhibition ([8]; 100 μg/ml): 120% of control
kinase inhibition ([9]; 1 μg/ml): 103% of control
kinase inhibition ([9]; 5 μg/ml): 100% of control
kinase inhibition ([9]; 25 μg/ml): 79% of control
kinase inhibition ([9]; 50 μg/ml): 67% of control
kinase inhibition ([9]; 100 μg/ml): 53% of control
kinase inhibition ([10]; 1 μg/ml): 110% of control
kinase inhibition ([10]; 5 μg/ml): 102% of control
kinase inhibition ([10]; 25 μg/ml): 104% of control
kinase inhibition ([10]; 50 μg/ml): 91% of control
kinase inhibition ([10]; 100 μg/ml): 88% of control
kinase inhibition ([11]; 1 μg/ml): 107% of control
kinase inhibition ([11]; 5 μg/ml): 104% of control
kinase inhibition ([11]; 25 μg/ml): 110% of control
kinase inhibition ([11]; 50 μg/ml): 94% of control
kinase inhibition ([11]; 100 μg/ml): 88% of control
